Earlier results in patent US20060134216A1, “Enteric film coating composition containing enteric polymer micronized with detackifier” (priority 2004, published 2006).

Details: aqueous solution at pH values under 4.0

For `COc1ccc2[nH]c([S+]([O-])Cc3ncc(C)c(OC)c3C)nc2c1` (stereo not shown) [omeprazole], the half-life is listed as “less than ten”.
